Holding throughout (test): DTP human tumour cell line panel, 48 h
Assay [1] has as its system UACC-62 melanoma.
Assay [2] deals with HL-60(TB) leukemia.
Assay [3] deals with K-562 leukemia.
Assay [4] deals with RXF 393 renal.
The subject of assay [5] is SF-268 CNS.
The subject of assay [6] is OVCAR-8 ovarian.
Assay [7] has as its system COLO 205 colon.
The test system of assay [8] is MOLT-4 leukemia.
In assay [9] the test system is CCRF-CEM leukemia.
For assay [10], the system named is SF-539 CNS.
The subject of assay [11] is UO-31 renal.
The subject of assay [12] is KM12 colon.
Assay [13] relates to SW-620 colon.
In assay [14] the test system is NCI/ADR-RES ovarian.
In assay [15] the test system is UACC-257 melanoma.
The subject of assay [16] is ACHN renal.

SMILES strings stand for the structures.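 In this assay, cells in 96-well plates receive the compound at five concentrations for 48 hours. Endpoints are linearly interpolated between the surrounding concentrations. TGI denotes the concentration required for complete inhibition of growth.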

Results on 9 molecules are retold here after PubChem BioAssay (NCI).

As usually defined, the TGI is the concentration at which net growth stops. The low end stands for more potent growth arrest, the high end for less potent growth arrest.

On to `Cc1nc2ccccc2c(=O)n1NC(=O)c1ccccn1`, for which the TGI in assay [1], in [2], in assay [3], in assay [4], in assay [5] and in [6] was over 100 µM in each case. Further, the TGI in assay [7], in assay [8], in [9], in [10], in assay [11] and in [12] was over 100 µM each time. Also, the TGI in [13], in assay [14], in assay [15] and in assay [16] was over 100 µM throughout.

Consider `O=C(CSc1ncccn1)N/N=C/c1ccccc1OCc1ccccc1`, for which the TGI was 50.4 µM in [1]; 47.5 µM in assay [2]; over 100 µM in [3]; 55.6 µM in [4]; over 100 µM in assay [5]; over 100 µM in assay [6]. Further, the TGI in [7] is 38.8 µM; in [8], 65.8 µM; in assay [9], 57.9 µM; in assay [10] it was 46 µM; in [11] it was over 100 µM; in [12], over 100 µM. The TGI was over 100 µM in assay [13], over 100 µM in assay [14], 53.5 µM in [15] and over 100 µM in [16].

`O=C1c2c(Br)sc(Br)c2C(NC(=O)C(F)(F)F)C1O` (centres undefined): the concentration for total growth inhibition (TGI) is 40.8 µM in assay [1]; over 100 µM in [2]; over 100 µM in assay [3]; 27.5 µM in [4]; over 100 µM in assay [5]; 44.1 µM in assay [6]. Besides, the TGI in assay [7] is 33.4 µM; in assay [8], over 100 µM; in assay [9], 56.3 µM; in assay [10], 32.1 µM; in assay [11] it was 56.7 µM; in assay [12], 91.6 µM. Besides, the TGI in [13] was determined as 40 µM; in assay [14] it was 75.2 µM; in [15] it was 36.4 µM; in [16], 84.2 µM.

Regarding `CC(=O)Nc1ccc(-c2nc3ccccc3s2)cc1Br`, the TGI in assay [1] was over 100 µM; in [2], over 100 µM; in assay [3], over 100 µM; in assay [4] it was 66 µM; in [5] it was over 100 µM; in [6], over 93.7 µM. Moreover, the TGI in assay [7] was over 100 µM; in assay [8], over 100 µM; in assay [9] it was over 100 µM; in assay [10] it was over 77.3 µM; in assay [11] it was over 100 µM; in [12], over 100 µM. The TGI in [13], in [14], in assay [15] and in assay [16] was over 100 µM throughout.

As to `COC(=O)c1ccccc1/C=C1\Cc2c(ccc3c2CCC3)C1=O`, the TGI in assay [1], in assay [2], in [3], in assay [4], in assay [5] and in assay [6] was over 100 µM each time. The TGI in assay [7], in assay [8], in assay [9], in assay [10], in assay [11] and in assay [12] was over 100 µM throughout. Moreover, the TGI in assay [13], in assay [14], in [15] and in assay [16] was over 100 µM throughout.

In the case of `O=S(=O)(/N=S(/Nc1ccccc1)C(Cl)Cl)c1ccccc1` (centres undefined), the TGI in assay [1], in [2], in [3], in [4], in [5] and in assay [6] was over 100 µM each time. In addition, the TGI in assay [7], in [8], in assay [9], in [10], in assay [11] and in [12] was over 100 µM throughout. Moreover, the TGI in assay [13], in assay [14], in [15] and in assay [16] was over 100 µM each time.

`C=CCN1C(=O)/C(=C/c2ccc(Cl)cc2)N=C1SC/C=C/C`: the TGI was over 100 µM in assay [1]; 57.5 µM in [2]; over 100 µM in assay [3]; 55.3 µM in [4]; over 100 µM in assay [5]; over 100 µM in assay [6]. Moreover, the concentration for total growth inhibition (TGI) was over 100 µM in assay [7]; 43.8 µM in [8]; over 100 µM in assay [9]; over 100 µM in assay [10]; over 100 µM in [11]; over 100 µM in assay [12]. Moreover, the TGI in assay [13], in assay [14], in [15] and in assay [16] was over 100 µM in each case.

As to `CC[C@]12C=CCN3CC[C@@]4(c5cc(Br)c(OC)c([N+](=O)[O-])c5N(C)[C@H]4[C@@](O)(C(=O)OC)[C@@H]1OC(C)=O)[C@@H]32`, the concentration for total growth inhibition (TGI) in assay [1], in [2], in assay [3], in [4], in assay [5] and in assay [6] was over 100 µM in each case. Also, the TGI in assay [7] was over 100 µM; in [8] it was 70.6 µM; in assay [9] it was over 100 µM; in assay [10] it was over 100 µM; in assay [11] it was over 100 µM; in assay [12], over 100 µM. Further, the total growth inhibition concentration (TGI) in assay [13], in assay [14], in [15] and in assay [16] was over 100 µM each time.

With `CCOc1cccc(C=Nc2ccccc2SSc2ccccc2N=Cc2cccc(OCC)c2O)c1O`, the TGI in [1] came to 22 µM; in [2], 14.8 µM; in assay [3] it was 27.6 µM; in [4], 34.9 µM; in assay [5] it was 21.5 µM; in assay [6] it was 8.33 µM. Further, the total growth inhibition concentration (TGI) in assay [7] stood at 12.4 µM; in assay [8] it was 10.4 µM; in assay [9], 12.2 µM; in [10], 80.2 µM; in [11], 26.6 µM; in [12] it was 19.6 µM. For the same molecule, the TGI in assay [13] was 23.1 µM; in [14] it was over 100 µM; in assay [15], 21.2 µM; in assay [16], 29.3 µM.
